# Laboratory results taken from US20260241046A1, “PROSTATE-SPECIFIC MEMBRANE ANTIGEN RECEPTOR-TARGETING RADIOPHARMACEUTICALS AND USES THEREOF” (Nuclidium AG, priority 2024, published 2026).
# “Also recorded” adds a separate entry of the source.
# Tests used:
# PSMA-expressing tumors = target: T1, PSMA-expressing tumors (Homo sapiens, UniProt Q04609); test: First-in-human PET/CT study; assay type: in vivo; settings: 104 MBq i.v., imaging at 3 hours, patient with metastatic prostate cancer
# T1 construct: administered intravenously to a patient with known metastatic prostate cancer; from tissue; host or cells: osseous and hepatic metastases of a patient with metastatic prostate cancer
# T1 sequence (Q04609 whole entry): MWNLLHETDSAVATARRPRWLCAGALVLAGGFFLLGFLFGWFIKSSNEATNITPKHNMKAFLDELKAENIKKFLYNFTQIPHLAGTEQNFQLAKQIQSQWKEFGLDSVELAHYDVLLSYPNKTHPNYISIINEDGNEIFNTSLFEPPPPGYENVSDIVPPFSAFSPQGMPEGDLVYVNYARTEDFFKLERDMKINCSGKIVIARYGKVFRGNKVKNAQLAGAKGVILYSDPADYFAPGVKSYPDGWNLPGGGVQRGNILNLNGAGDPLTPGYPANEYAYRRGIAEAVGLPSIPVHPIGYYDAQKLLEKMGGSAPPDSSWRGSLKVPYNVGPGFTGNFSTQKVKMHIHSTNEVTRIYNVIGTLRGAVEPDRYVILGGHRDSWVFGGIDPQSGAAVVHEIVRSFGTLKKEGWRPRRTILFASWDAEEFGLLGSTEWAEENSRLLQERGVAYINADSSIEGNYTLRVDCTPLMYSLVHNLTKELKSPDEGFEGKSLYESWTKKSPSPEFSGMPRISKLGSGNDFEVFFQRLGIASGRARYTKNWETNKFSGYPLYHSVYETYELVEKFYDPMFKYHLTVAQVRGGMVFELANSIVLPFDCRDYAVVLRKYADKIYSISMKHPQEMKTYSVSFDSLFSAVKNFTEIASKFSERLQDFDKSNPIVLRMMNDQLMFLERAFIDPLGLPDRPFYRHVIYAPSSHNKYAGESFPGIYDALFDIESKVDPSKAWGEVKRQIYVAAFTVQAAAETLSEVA
# Experimental: A [^61Cu]Cu-NODAGA-PSMA I&T dose of 104 MBq (2.81 mCi) was administered intravenously to a patient with known metastatic prostate cancer. The patient was co-injected with 10 mg furosemide (Lasix®, Sanofi-Aventis, Frankfurt, Germany).
# Imaging was performed at 3 hours following radiotracer administration on a Biograph Vision 600 (Siemens, Germany) PET/CT scanner. Images were obtained from the skull to mid-thigh and reconstructed into multiplanar PT, CT, and fused PET/CT images. CT was used for attenuation correction.
# LNCaP xenografted mice [1] = test: Biodistribution studies in LNCaP xenografted mice; assay type: in vivo
# Experimental: (§1) Unless otherwise specified, the in vivo studies were performed on athymic nude Foxn1^nu 4-6-week-old mice. Animals were injected in the shoulder with LNCaP cells (10^7 cells/200 μL) suspended in 1:1 (v: v) EMEM EBS medium and Matrigel. The in vivo experiments were performed when tumors reached a volume between 100-500 mm^3. At the intervention, all mice were between 7 and 11 weeks old. All animal experiments were performed following the guidelines for the use of living animals in scientific studies and the Swiss regulations for the protection of animals.
# Quantitative biodistribution studies were performed on LNCaP xenografted mice to determine the distribution of [^61Cu]Cu-NODAGA-PSMA I&T following i.v. injection into the tail vein. The dose of the administered radiopharmaceutical was between 1.5-3.5 MBq ([…]) diluted to 100 μL with saline solution. The mice were divided into two groups of eight (5 males and 3 females) and euthanized at 1- and 4-hours post-injection. The organs of interest were then collected, rinsed, blotted, weighed, and analyzed in a gamma counter. The results were expressed as the percentage of injected activity per gram of tissue (% IA/g) and reported as mean±standard deviation in Table 25.
# LNCaP cells = test: In vitro efflux rate; assay type: cell-based, human; settings: for Cell-associated fraction, With competitor: 100-fold excess DOTAGA-PSMA I&T
# Experimental: Efflux-rate assays were performed on 6-well plates pre-treated with poly-L-lysine to promote adhesion. The plated cells were incubated with [^61Cu]Cu-NODAGA-PSMA I&T (100 μL, 0.5 nM) at 37° C. For non-specific uptake measurement, 100 μL of 2-PMPA (10 μM) was added to some wells. After 1 h, the cell-released fraction was collected by removing the medium and washing it twice with PBS. Then, the cells were incubated at 37° C. in a fresh medium for up to 180 min. At each time point, the medium was removed and replaced by fresh pre-warmed (37° C.) medium. At the end of the experiment, the cells were detached with 1 M sodium hydroxide and collected to determine the remaining cell-binding [^61Cu]Cu-NODAGA-PSMA I&T. The different fractions were quantified using a γ-counter (Cobra II, Packard A Canberra) and represented as a percentage of the applied radioactivity.
# The experiment was also performed in the presence of a competitor (100-fold excess DOTAGA-PSMA I&T) to obtain a “rebinding free” system. The presence of the competitor prevented any rebinding of [^61Cu]Cu-NODAGA-PSMA I&T that dissociates faster. The values were calculated as a percentage of the cell-associated fraction (surface-bound and internalized fraction), subtracting the non-specific uptake (measured in the presence of 10 μM 2-PMPA).
# LNCaP xenografted mice [2] = test: PET/CT imaging in mice; assay type: in vivo
# Experimental: as §1
# LNCap xenografted mice were injected i.v. into the tail vein with 4-8 MBq (400 pmol) of [^61Cu]Cu-NODAGA-PSMA I&T diluted in 100 μL saline solution. Dynamic PET scans were acquired for 1 hour upon injection of the radiotracer. The mice were euthanized using carbon dioxide at 4 hours post-injection, the bladder was mechanically emptied, and static PET scans were acquired for 30 min. PET images were obtained using the β-CUBE PET scanner system (MOLECUBES, Gent, Belgium) and were decay corrected and reconstructed with the VivoQuant software version 4.0. Tomograms and helical CT scans of the whole mouse were first acquired using a NanoSPECT/CTTM scanner (Bioscan Inc.). CT images were reconstructed using CTReco (version r1.146), resulting in a pixel size of 0.2 mm. […]
smiles,measurement,setting,value
O=C([O-])CN1CCN(CC(=O)[O-])CCN([C@H](CCC(=O)N[C@H](Cc2ccc(O)c(I)c2)C(=O)N[C@H](Cc2ccccc2)C(=O)N[C@H](CCCCNC(=O)CCCCCCC(=O)NCCCC[C@H](NC(=O)N[C@@H](CCC(=O)O)C(=O)O)C(=O)O)C(=O)O)C(=O)O)CC1.[61Cu+2] [[^61Cu]Cu-NODAGA-PSMA I&T],radiotracer accumulation on PET/CT,PSMA-expressing tumors,multifocal osseous (arrows) and hepatic (arrowheads) metastases; also recorded: Radiotracer accumulation was noted in multifocal osseous and hepatic metastases
same,"Biodistribution, Adrenal",LNCaP xenografted mice [1]; 1 hour post-injection,17.3±3.26 % IA/g
same,"Biodistribution, Blood",LNCaP xenografted mice [1]; 1 hour post-injection,0.28 ± 0.06 % IA/g
same,"Biodistribution, Bone",LNCaP xenografted mice [1]; 1 hour post-injection,2.73 ± 0.91 % IA/g
same,"Biodistribution, Heart",LNCaP xenografted mice [1]; 1 hour post-injection,0.45 ± 0.15 % IA/g
same,"Biodistribution, Intestine",LNCaP xenografted mice [1]; 1 hour post-injection,2.11 ± 0.78 % IA/g
same,"Biodistribution, Kidneys",LNCaP xenografted mice [1]; 1 hour post-injection,118±13 % IA/g
same,"Biodistribution, LNCaP-tumor",LNCaP xenografted mice [1]; 1 hour post-injection,14.0±5.0 % IA/g
same,"Biodistribution, Liver",LNCaP xenografted mice [1]; 1 hour post-injection,1.02 ± 0.28 % IA/g
same,"Biodistribution, Lung",LNCaP xenografted mice [1]; 1 hour post-injection,1.69 ± 0.45 % IA/g
same,"Biodistribution, Muscle",LNCaP xenografted mice [1]; 1 hour post-injection,1.12 ± 0.32 % IA/g
same,"Biodistribution, Pancreas",LNCaP xenografted mice [1]; 1 hour post-injection,0.97 ± 0.36 % IA/g
same,"Biodistribution, Salivary glands",LNCaP xenografted mice [1]; 1 hour post-injection,2.01±0.33 % IA/g
same,"Biodistribution, Spleen",LNCaP xenografted mice [1]; 1 hour post-injection,6.04±1.87 % IA/g
same,"Biodistribution, Stomach",LNCaP xenografted mice [1]; 1 hour post-injection,1.13 ± 0.20 % IA/g
same,Tumor/Blood uptake ratio,LNCaP xenografted mice [1]; 1 hour post-injection,50
same,Tumor/Kidney uptake ratio,LNCaP xenografted mice [1]; 1 hour post-injection,0.12
same,Tumor/Liver uptake ratio,LNCaP xenografted mice [1]; 1 hour post-injection,14
same,Tumor/Muscles uptake ratio,LNCaP xenografted mice [1]; 1 hour post-injection,13
same,Tumor/Salivary gland uptake ratio,LNCaP xenografted mice [1]; 1 hour post-injection,7
same,"Biodistribution, Adrenal",LNCaP xenografted mice [1]; 4 hours post-injection,8.32±2.87 % IA/g
same,"Biodistribution, Blood",LNCaP xenografted mice [1]; 4 hours post-injection,0.10±0.03 % IA/g
same,"Biodistribution, Bone",LNCaP xenografted mice [1]; 4 hours post-injection,1.34 ± 0.48 % IA/g
same,"Biodistribution, Heart",LNCaP xenografted mice [1]; 4 hours post-injection,0.22 ± 0.05 % IA/g
same,"Biodistribution, Intestine",LNCaP xenografted mice [1]; 4 hours post-injection,1.06 ± 0.50 % IA/g
same,"Biodistribution, Kidneys",LNCaP xenografted mice [1]; 4 hours post-injection,91±10 % IA/g
same,"Biodistribution, LNCaP-tumor",LNCaP xenografted mice [1]; 4 hours post-injection,10.7±3.3 % IA/g
same,"Biodistribution, Liver",LNCaP xenografted mice [1]; 4 hours post-injection,0.72 ± 0.11 % IA/g
same,"Biodistribution, Lung",LNCaP xenografted mice [1]; 4 hours post-injection,0.74 ± 0.19 % IA/g
same,"Biodistribution, Muscle",LNCaP xenografted mice [1]; 4 hours post-injection,0.50 ± 0.22 % IA/g
same,"Biodistribution, Pancreas",LNCaP xenografted mice [1]; 4 hours post-injection,0.45 ± 0.09 % IA/g
same,"Biodistribution, Salivary glands",LNCaP xenografted mice [1]; 4 hours post-injection,0.52±0.06 % IA/g
same,"Biodistribution, Spleen",LNCaP xenografted mice [1]; 4 hours post-injection,1.28 ± 0.39 % IA/g
same,"Biodistribution, Stomach",LNCaP xenografted mice [1]; 4 hours post-injection,0.66 ± 0.15 % IA/g
same,Tumor/Blood uptake ratio,LNCaP xenografted mice [1]; 4 hours post-injection,107
same,Tumor/Kidney uptake ratio,LNCaP xenografted mice [1]; 4 hours post-injection,0.12
same,Tumor/Liver uptake ratio,LNCaP xenografted mice [1]; 4 hours post-injection,15
same,Tumor/Muscles uptake ratio,LNCaP xenografted mice [1]; 4 hours post-injection,21
same,Tumor/Salivary gland uptake ratio,LNCaP xenografted mice [1]; 4 hours post-injection,21
same,"Cell-associated fraction, Without competitor",LNCaP cells; 10 min,83.8 ± 0.7%
same,"Cell-associated fraction, With competitor",LNCaP cells; 10 min,67.9 ± 1.1%
same,"Cell-associated fraction, Without competitor",LNCaP cells; 20 min,73.5 ± 0.8%
same,"Cell-associated fraction, With competitor",LNCaP cells; 20 min,54.4 ± 0.7%
same,"Cell-associated fraction, Without competitor",LNCaP cells; 30 min,65.2 ± 1.4%
same,"Cell-associated fraction, With competitor",LNCaP cells; 30 min,46.5 ± 0.4%
same,"Cell-associated fraction, Without competitor",LNCaP cells; 45 min,57.0 ± 2.8%
same,"Cell-associated fraction, With competitor",LNCaP cells; 45 min,39.9 ± 0.6%
same,"Cell-associated fraction, Without competitor",LNCaP cells; 60 min,51.3 ± 3.3%
same,"Cell-associated fraction, With competitor",LNCaP cells; 60 min,35.9 ± 0.9%
same,"Cell-associated fraction, Without competitor",LNCaP cells; 90 min,45.0 ± 3.3%
same,"Cell-associated fraction, With competitor",LNCaP cells; 90 min,29.9 ± 1.1%
same,"Cell-associated fraction, Without competitor",LNCaP cells; 120 min,40.0 ± 3.5%
same,"Cell-associated fraction, With competitor",LNCaP cells; 120 min,25.0 ± 0.5%
same,"Cell-associated fraction, Without competitor",LNCaP cells; 150 min,35.4 ± 3.1%
same,"Cell-associated fraction, With competitor",LNCaP cells; 150 min,20.9 ± 0.4%
same,"Cell-associated fraction, Without competitor",LNCaP cells; 180 min,31.5 ± 2.5%
same,"Cell-associated fraction, With competitor",LNCaP cells; 180 min,17.5 ± 0.5%
same,time of maximum accumulation in the tumor,LNCaP xenografted mice [2],1 hour post-injection
same,time of optimal tumor-to-background signal ratio,LNCaP xenografted mice [2],4 hours post-injection
